Experimental data taken from the NIST ThermoML archive (doi:10.1021/acs.jced.7b00176).

Experiment: xn = mol fraction of the nth substance listed
Conditions: Liquid, Vibrating tube method

COCCOCCOC [2,5,8-trioxanonane] + CCCCO
Conditions	mass density [kg/m3]
323.26 K, 30000 kPa, x2 = 0.7308	855.36
323.27 K, 100 kPa, x2 = 0.3116	884.02
323.27 K, 5000 kPa, x2 = 0.3116	888.39
323.27 K, 40000 kPa, x2 = 0.7308	862.01
323.27 K, 60000 kPa, x2 = 0.7308	874.24
323.27 K, 80000 kPa, x2 = 0.7308	885.1
323.27 K, 100000 kPa, x2 = 0.7308	894.94
323.28 K, 1000 kPa, x2 = 0.3116	884.84
323.28 K, 10000 kPa, x2 = 0.3116	892.57
323.28 K, 20000 kPa, x2 = 0.3116	900.61
323.28 K, 30000 kPa, x2 = 0.3116	907.85
323.28 K, 40000 kPa, x2 = 0.3116	914.76
323.28 K, 80000 kPa, x2 = 0.3116	938.32
323.29 K, 100 kPa, x2 = 0.8787	809.04
323.29 K, 1000 kPa, x2 = 0.8787	809.88
323.29 K, 5000 kPa, x2 = 0.8787	813.32
323.29 K, 10000 kPa, x2 = 0.8787	817.49
323.29 K, 20000 kPa, x2 = 0.8787	825.25
323.29 K, 30000 kPa, x2 = 0.8787	832.38
323.29 K, 40000 kPa, x2 = 0.8787	838.96
323.29 K, 60000 kPa, x2 = 0.3116	927.16
323.29 K, 60000 kPa, x2 = 0.8787	850.97
323.29 K, 80000 kPa, x2 = 0.8787	861.63
323.29 K, 100000 kPa, x2 = 0.3116	948.49
323.29 K, 100010 kPa, x2 = 0.8787	871.34
342.49 K, 100 kPa, x2 = 0	894.03
342.49 K, 1000 kPa, x2 = 0	894.98
342.49 K, 5000 kPa, x2 = 0	898.96
342.5 K, 10000 kPa, x2 = 0	903.66
342.5 K, 20000 kPa, x2 = 0	912.57
342.51 K, 30000 kPa, x2 = 0	920.68
342.51 K, 40000 kPa, x2 = 0	928.18
342.51 K, 60000 kPa, x2 = 0	941.77
342.51 K, 80000 kPa, x2 = 0	953.82
342.52 K, 100000 kPa, x2 = 0	964.68
342.99 K, 100 kPa, x2 = 0.5469	838.63
343 K, 1000 kPa, x2 = 0.5469	839.58
343 K, 5000 kPa, x2 = 0.5469	843.51
343 K, 10000 kPa, x2 = 0.5469	848.2
343.01 K, 20000 kPa, x2 = 0.5469	856.98
343.01 K, 30000 kPa, x2 = 0.5469	864.93
343.01 K, 40000 kPa, x2 = 0.5469	872.29
343.01 K, 60000 kPa, x2 = 0.5469	885.57
343.01 K, 80000 kPa, x2 = 0.5469	897.36
343.02 K, 100 kPa, x2 = 0.7308	814.17
343.02 K, 100000 kPa, x2 = 0.5469	907.94
343.03 K, 1000 kPa, x2 = 0.7308	815.11
343.03 K, 5000 kPa, x2 = 0.7308	819.06
343.03 K, 80000 kPa, x2 = 0.8787	849.39
343.04 K, 100 kPa, x2 = 0.3116	864.74
343.04 K, 100 kPa, x2 = 0.8787	792.02
343.04 K, 1000 kPa, x2 = 0.3116	865.7
343.04 K, 1000 kPa, x2 = 0.8787	792.98
343.04 K, 5000 kPa, x2 = 0.8787	796.88
343.04 K, 10000 kPa, x2 = 0.7308	823.7
343.04 K, 10000 kPa, x2 = 0.8787	801.5
343.04 K, 20000 kPa, x2 = 0.7308	832.39
343.04 K, 20000 kPa, x2 = 0.8787	810.09
343.04 K, 30000 kPa, x2 = 0.7308	840.28
343.04 K, 30000 kPa, x2 = 0.8787	817.86
343.04 K, 40000 kPa, x2 = 0.7308	847.55
343.04 K, 40000 kPa, x2 = 0.8787	825.03
343.04 K, 60000 kPa, x2 = 0.7308	860.64
343.04 K, 60000 kPa, x2 = 0.8787	837.96
343.04 K, 80000 kPa, x2 = 0.7308	872.22
343.04 K, 100000 kPa, x2 = 0.7308	882.62
343.04 K, 100000 kPa, x2 = 0.8787	859.63
343.05 K, 5000 kPa, x2 = 0.3116	869.66
343.05 K, 10000 kPa, x2 = 0.3116	874.4
343.06 K, 20000 kPa, x2 = 0.3116	883.26
343.06 K, 30000 kPa, x2 = 0.3116	891.31
343.06 K, 40000 kPa, x2 = 0.3116	898.79
343.06 K, 60000 kPa, x2 = 0.3116	912.24
343.07 K, 80000 kPa, x2 = 0.3116	924.13
343.08 K, 100000 kPa, x2 = 0.3116	934.89
362.51 K, 100 kPa, x2 = 0	873.45
362.51 K, 1000 kPa, x2 = 0	874.46
362.51 K, 5000 kPa, x2 = 0	879.02
362.52 K, 10000 kPa, x2 = 0	884.41
362.52 K, 20000 kPa, x2 = 0	894.33
362.52 K, 30000 kPa, x2 = 0	903.29
362.52 K, 40000 kPa, x2 = 0	911.53
362.53 K, 60000 kPa, x2 = 0	926.3
362.53 K, 80000 kPa, x2 = 0	939.26
362.53 K, 100000 kPa, x2 = 0	950.89
362.67 K, 100 kPa, x2 = 0.5469	819.52
362.68 K, 1000 kPa, x2 = 0.5469	820.52
362.68 K, 5000 kPa, x2 = 0.5469	825.03
362.68 K, 10000 kPa, x2 = 0.5469	830.34
362.69 K, 100 kPa, x2 = 0.8787	774.25
362.69 K, 1000 kPa, x2 = 0.8787	775.26
362.69 K, 5000 kPa, x2 = 0.8787	779.7
362.69 K, 20000 kPa, x2 = 0.5469	840.09
362.69 K, 30000 kPa, x2 = 0.5469	848.85
362.69 K, 40000 kPa, x2 = 0.5469	856.9
362.69 K, 60000 kPa, x2 = 0.5469	871.26
362.69 K, 80000 kPa, x2 = 0.5469	883.92
362.7 K, 5000 kPa, x2 = 0.3116	850.69
362.7 K, 10000 kPa, x2 = 0.8787	784.88
362.7 K, 20000 kPa, x2 = 0.8787	794.41
362.7 K, 30000 kPa, x2 = 0.8787	802.93
362.7 K, 40000 kPa, x2 = 0.8787	810.75
362.7 K, 60000 kPa, x2 = 0.8787	824.68
362.7 K, 100000 kPa, x2 = 0.5469	895.2
362.71 K, 100 kPa, x2 = 0.3116	845.12
362.71 K, 100 kPa, x2 = 0.7308	795.72
362.71 K, 1000 kPa, x2 = 0.3116	846.14
362.71 K, 10000 kPa, x2 = 0.3116	856.03
362.71 K, 20000 kPa, x2 = 0.3116	865.91
362.71 K, 30000 kPa, x2 = 0.3116	874.79
362.71 K, 80000 kPa, x2 = 0.8787	836.92
362.71 K, 100000 kPa, x2 = 0.8787	847.79
362.72 K, 1000 kPa, x2 = 0.7308	796.73
362.72 K, 5000 kPa, x2 = 0.7308	801.19
362.72 K, 10000 kPa, x2 = 0.7308	806.44
362.72 K, 20000 kPa, x2 = 0.7308	816.08
362.72 K, 30000 kPa, x2 = 0.7308	824.74
362.72 K, 40000 kPa, x2 = 0.3116	882.96
362.72 K, 40000 kPa, x2 = 0.7308	832.66
362.72 K, 60000 kPa, x2 = 0.3116	897.55
362.72 K, 80000 kPa, x2 = 0.3116	910.38
362.72 K, 100000 kPa, x2 = 0.3116	921.84
362.73 K, 60000 kPa, x2 = 0.7308	846.83
362.73 K, 80000 kPa, x2 = 0.7308	859.23
362.73 K, 100000 kPa, x2 = 0.7308	870.28
